One data set concerns N87 cells. Kind of data set: Inhibitory activity of payloads on cell proliferation (Cell titer glo). Conditions: for EC50: 4 days culture. Type of data set: cell-based. The method, then:
(§1) The cells were incubated in an incubator at 37° C. overnight. The payload to be tested was dissolved in DMSO, and the resulting solution was aliquoted and cryopreserved at −80° C. The next day, the payload to be tested was subjected to 4-fold dilution to a maximum concentration of 10000 nM for 10 points using the respective complete medium. 100 µL of the diluted drug was added to the cell culture wells (2 replicates per well). After the cells were cultured at 37° C. for 4 days, 50 μL of Cell titer glo substrate was added to each well. After the cells were incubated for 5 min, the fluorescence values were measured.
In general terms: In ATP-based viability assays light output follows the ATP content of the culture.

In a further data set the test system is MCF7 cells. The description is as above. The following applies: for EC50: 4 days culture. Type of data set: cell-based. The protocol: as §1
The test system of a further data set is NUGC4 cells. Described as above. Type of data set: cell-based. The following applies: for EC50: 4 days culture. The method, then: as §1
Another data set has as its system IKZF1/3. Conditions: clinical results shown at AACR April 2022; cited from earlier work.
The target of data set [1] is monkey B7H3-4IgG-his (monkey). Description: ELISA, coated monkey B7H3-4IgG-his, anti-human Fc-HRP detection.
Data set [2] has as its target T1, B7H3 on tumor cells (MCF-7, A549, PC-3) (human) (UniProt Q5ZPR3).
T1 sequence (looked up): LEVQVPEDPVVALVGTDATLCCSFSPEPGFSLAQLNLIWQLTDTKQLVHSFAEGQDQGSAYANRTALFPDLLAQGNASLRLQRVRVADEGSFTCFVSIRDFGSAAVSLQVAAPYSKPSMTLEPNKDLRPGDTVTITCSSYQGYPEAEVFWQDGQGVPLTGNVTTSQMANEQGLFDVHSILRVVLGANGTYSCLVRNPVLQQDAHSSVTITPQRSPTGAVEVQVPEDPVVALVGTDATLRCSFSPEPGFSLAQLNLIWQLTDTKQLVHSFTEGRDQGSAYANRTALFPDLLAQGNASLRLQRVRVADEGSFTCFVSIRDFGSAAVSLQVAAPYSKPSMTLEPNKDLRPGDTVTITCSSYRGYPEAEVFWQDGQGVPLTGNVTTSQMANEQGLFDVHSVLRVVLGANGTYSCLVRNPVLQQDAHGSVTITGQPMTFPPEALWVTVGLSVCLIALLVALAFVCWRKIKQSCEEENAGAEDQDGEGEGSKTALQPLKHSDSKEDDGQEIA
Kind of data set: flow cytometry on A549 tumor cells. For orientation: Flow cytometry measures light scatter and fluorescence of single cells or particles in a stream.

The target in data set [3] is T1, B7H3 on tumor cells (MCF-7, A549, PC-3) (human). Description: flow cytometry on PC-3 tumor cells.
Data set [4] has the same target. Description: flow cytometry on A549 tumor cells. The source holds these as a separate data set.
The target in data set [5] is T2, human B7H3-4IgG-his (human) (UniProt Q5ZPR3).
T2 sequence: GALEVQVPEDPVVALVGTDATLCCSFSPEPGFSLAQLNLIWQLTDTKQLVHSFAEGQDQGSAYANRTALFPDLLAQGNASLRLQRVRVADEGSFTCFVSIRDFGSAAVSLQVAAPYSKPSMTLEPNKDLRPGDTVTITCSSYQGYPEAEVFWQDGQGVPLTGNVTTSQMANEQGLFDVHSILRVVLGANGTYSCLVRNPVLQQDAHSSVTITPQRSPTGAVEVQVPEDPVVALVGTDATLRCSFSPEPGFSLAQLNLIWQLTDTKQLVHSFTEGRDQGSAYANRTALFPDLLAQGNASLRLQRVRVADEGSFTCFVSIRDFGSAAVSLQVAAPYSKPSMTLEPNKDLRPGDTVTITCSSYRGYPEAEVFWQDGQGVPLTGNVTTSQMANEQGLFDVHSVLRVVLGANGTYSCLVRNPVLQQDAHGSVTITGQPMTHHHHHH
Kind of data set: ELISA, coated human B7H3-4IgG-his, anti-human Fc-HRP detection.

Data set [6] addresses T2, human B7H3-4IgG-his (human). Described as above. This is another data set of the same source.
The target in data set [7] is T1, B7H3 on tumor cells (MCF-7, A549, PC-3) (human). Description: flow cytometry on MCF-7 tumor cells.
Data set [8] shares this target. Description: flow cytometry on MCF-7 tumor cells. The source holds these as a separate data set.
Data set [9] concerns the target monkey B7H3-4IgG-his (monkey). Kind of data set: ELISA, coated monkey B7H3-4IgG-his, anti-human Fc-HRP detection. This is another data set of the same source.

Like-named read-outs stand apart in the source and are kept apart here.

A word on the EC50: it is the midpoint of the concentration-response curve. Take `CN(CCCc1ccc(NC(=O)NCc2ccc3c(c2)C(=O)N(C2CCC(=O)NC2=O)C3=O)cc1Cl)C(=O)CO` (stereo not drawn) [PL-3, N-(3-(2-chloro-4-(3-((2-(2,6-dioxopiperidin-3-yl)-1,3-dioxoisoindol-5-yl)methyl)ureido)phenyl)propyl)-2-hydroxy-N-methylacetamide]: the concentration for a half-maximal effect (EC50) with N87 cells (96 h) amounted to 851 nM.
For the molecule `CN(CCOCCc1ccc(NC(=O)NCc2ccc3c(c2)CN(C2CCC(=O)NC2=O)C3=O)cc1Cl)C(=O)CO` (stereo not drawn) [PL-4, N-(2-chloro-4-(3-(2-(2,6-dioxopiperidin-3-yl)-1-oxoisoindolin-5-methyl)ureido)phenethoxy)ethyl-2-hydroxy-N-methylacetamide], in the data set on N87 cells, the “inhibitory activity on the proliferation of N87 cells (in words)” value is on record as “significantly superior to that of control compound 1” and it took 36.1 nM to reach a half-maximal effect (EC50). In addition, in the data set with MCF7 cells, the “inhibitory activity on the proliferation of MCF7 cells (in words)” value is recorded as “significantly superior to that of control compound 1” and the midpoint of the response, the EC50, lay at 44.7 nM. Further, in the data set on NUGC4 cells, the “inhibitory activity on the proliferation of NUGC4 cells (in words)” value is “significantly superior to that of control compound 1” and the EC50 is 43.2 nM.
Consider `CN(CCCc1ccc(NC(=O)NCc2ccc3c(c2)CN(C2CCC(=O)NC2=O)C3=O)cc1)C(=O)CO` (stereo not drawn) [PL-5, N-(3-(4-(3-(2-(2,6-dioxopiperidin-3-yl)-1-oxoisoindolin-5-methyl)ureido)phenyl)propyl)-2-hydroxy-N-methylacetamide], for which the EC50 with N87 cells (96 h) was 1590 nM; in the data set on MCF7 cells (Homo sapiens, MCF7, 96 h), 228 nM; with NUGC4 cells (Homo sapiens, NUGC-4, 96 h), 502 nM.
Regarding `CN(CCCc1ccc(NC(=O)NCc2ccc3c(c2)CN(C2CCC(=O)NC2=O)C3=O)cc1Cl)C(=O)CO` (stereo not drawn) [PL-1, N-(3-(2-chloro-4-(3-((2-(2,6-dioxopiperidin-3-yl)-1-oxoisoindolin-5-yl)methyl)ureido)phenyl)propyl)-2-hydroxy-N-methylacetamide], the “inhibitory activity on the proliferation of N87 cells (in words)” value in the data set on N87 cells is reported as “significantly superior to that of control compound 1”. Moreover, the EC50 in the data set on N87 cells (96 h) came to 14.3 nM; with MCF7 cells (Homo sapiens, MCF7, 96 h) it was 62.1 nM. In addition, the “inhibitory activity on the proliferation of MCF7 cells (in words)” value in the data set on MCF7 cells was “significantly superior to that of control compound 1”.
As to `CNCCOCCc1ccc(NC(=O)NCc2ccc3c(c2)CN(C2CCC(=O)NC2=O)C3=O)cc1Cl` (stereo not drawn) [Control compound 1], the EC50 in the data set with N87 cells (96 h) came out at 572 nM; with MCF7 cells (Homo sapiens, MCF7, 96 h) it was 983 nM; in the data set on NUGC4 cells (Homo sapiens, NUGC-4, 96 h), 345 nM.
For `O=C1CC[C@H](N2C(=O)c3cccc4c(Cc5ccc(CN6CCOCC6)cc5)ccc2c34)C(=O)N1` [CFT7455], the “dose-limiting toxicity in the clinic” value in the data set with IKZF1/3 is reported as “decreased neutrophil was dose-limiting”.
`CN(CCCc1ccc(C(F)(F)C(=O)NCc2ccc3c(c2)CN(C2CCC(=O)NC2=O)C3=O)cc1Cl)C(=O)CO` (stereo not drawn) [PL-2] came in with an EC50 in the data set on N87 cells (96 h) of 193 nM.

B1: B7H3-C1 antibody (antibody, INN chains, looked up, V domains shown)
VH: QVQLVQSGAEVKKPGSSVKVSCKASGYTFTNYVMHWVRQAPGQGLEWMGYINPYNDDVKYNEKFKGRVTITADESTSTAYMELSSLRSEDTAVYYCARWGYYGSPLYYFDYWGQGTLVTVSS
VL: EIVLTQSPATLSLSPGERATLSCRASSRLIYMHWYQQKPGQAPRPLIYATSNLASGIPARFSGSGSGTDFTLTISSLEPEDFAVYYCQQWNSNPPTFGQGTKVEIK
As for B1, the EC50 turned out to be 0.167 nM in data set [1]; 1.86 nM in data set [2]; 0.618 nM in [3]; 1.05 nM in data set [4]; 0.0519 nM in data set [5]; 0.048 nM in data set [6]. The EC50 in [7] turned out to be 1.71 nM; in data set [8], 1.36 nM; in [9] it was 3.92 nM. Also, the Maximum MFI came to 8270 in [2]; 6440 in data set [3]; 48000 in [4]; 84000 in [7]; 63200 in [8].

Source of the values: patent US20250325688A1, “ANTIBODY-DRUG CONJUGATE CONTAINING PROTEIN DEGRADATION AGENT BIOACTIVE COMPOUND, METHOD FOR PREPARING SAME, AND USE THEREOF” (Medilink Therapeutics (Suzhou) Co., Ltd., priority 2022, published 2025).
